# Results as given in ChEMBL document CHEMBL1201862, “PubChem BioAssay data set” (2004).
# The source made the active and inactive calls. Rule as the data show it, for most assays here: actives have a measured EC50 and inactives only a lower limit.
# Test system: not listed separately
# Experiment: viability of PTEN-deleted HCT116 cells – cell-based, HCT116 PTEN knockout, dose response (AID 1047);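 also: HCT116 colon tumor cells with PTEN knocked out; cells exposed to compound for 60 hours before readout; potency for loss of cell viability measured by luminescence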
# Format: functional
# Settings: not given
row,Compound,EC50
1,COc1ccc(/C=C2\CN(Cc3ccccc3)C/C(=C\c3ccc(OC)cc3)C2=O)cc1,6.02 µM (active)
2,Fc1ccc(-c2cc3nc(-c4ccccc4)cc(N4CCN(CCN5CCOCC5)CC4)n3n2)cc1,71.2 µM (active)
3,O=Cc1ccc(Sc2nnc(-c3ccccc3)o2)c([N+](=O)[O-])c1,21.4 µM (active)
4,CCOc1nc(NCCc2ccc(OC)c(OC)c2)nc(N2CCN(c3ccc(OC)cc3)CC2)n1,6.42 µM (active)
5,COc1cc(C(=O)O/N=C2/C=CC(=O)C(C)=C2C)cc(OC)c1OC,18.3 µM (active)

# Target: Fatty acid synthase (Homo sapiens, UniProt P49327)
# Experiment: inhibition of human FAS-TE enzyme activity – biochemical, kinetic fluorescence intensity, dose response (AID 624326);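 also: rate of fluorescence rise from hydrolysis of a fluorogenic O-methyl fluorescein ester substrate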
# Format: functional
# Settings: not given
# Sequence of Fatty acid synthase (P49327 whole entry): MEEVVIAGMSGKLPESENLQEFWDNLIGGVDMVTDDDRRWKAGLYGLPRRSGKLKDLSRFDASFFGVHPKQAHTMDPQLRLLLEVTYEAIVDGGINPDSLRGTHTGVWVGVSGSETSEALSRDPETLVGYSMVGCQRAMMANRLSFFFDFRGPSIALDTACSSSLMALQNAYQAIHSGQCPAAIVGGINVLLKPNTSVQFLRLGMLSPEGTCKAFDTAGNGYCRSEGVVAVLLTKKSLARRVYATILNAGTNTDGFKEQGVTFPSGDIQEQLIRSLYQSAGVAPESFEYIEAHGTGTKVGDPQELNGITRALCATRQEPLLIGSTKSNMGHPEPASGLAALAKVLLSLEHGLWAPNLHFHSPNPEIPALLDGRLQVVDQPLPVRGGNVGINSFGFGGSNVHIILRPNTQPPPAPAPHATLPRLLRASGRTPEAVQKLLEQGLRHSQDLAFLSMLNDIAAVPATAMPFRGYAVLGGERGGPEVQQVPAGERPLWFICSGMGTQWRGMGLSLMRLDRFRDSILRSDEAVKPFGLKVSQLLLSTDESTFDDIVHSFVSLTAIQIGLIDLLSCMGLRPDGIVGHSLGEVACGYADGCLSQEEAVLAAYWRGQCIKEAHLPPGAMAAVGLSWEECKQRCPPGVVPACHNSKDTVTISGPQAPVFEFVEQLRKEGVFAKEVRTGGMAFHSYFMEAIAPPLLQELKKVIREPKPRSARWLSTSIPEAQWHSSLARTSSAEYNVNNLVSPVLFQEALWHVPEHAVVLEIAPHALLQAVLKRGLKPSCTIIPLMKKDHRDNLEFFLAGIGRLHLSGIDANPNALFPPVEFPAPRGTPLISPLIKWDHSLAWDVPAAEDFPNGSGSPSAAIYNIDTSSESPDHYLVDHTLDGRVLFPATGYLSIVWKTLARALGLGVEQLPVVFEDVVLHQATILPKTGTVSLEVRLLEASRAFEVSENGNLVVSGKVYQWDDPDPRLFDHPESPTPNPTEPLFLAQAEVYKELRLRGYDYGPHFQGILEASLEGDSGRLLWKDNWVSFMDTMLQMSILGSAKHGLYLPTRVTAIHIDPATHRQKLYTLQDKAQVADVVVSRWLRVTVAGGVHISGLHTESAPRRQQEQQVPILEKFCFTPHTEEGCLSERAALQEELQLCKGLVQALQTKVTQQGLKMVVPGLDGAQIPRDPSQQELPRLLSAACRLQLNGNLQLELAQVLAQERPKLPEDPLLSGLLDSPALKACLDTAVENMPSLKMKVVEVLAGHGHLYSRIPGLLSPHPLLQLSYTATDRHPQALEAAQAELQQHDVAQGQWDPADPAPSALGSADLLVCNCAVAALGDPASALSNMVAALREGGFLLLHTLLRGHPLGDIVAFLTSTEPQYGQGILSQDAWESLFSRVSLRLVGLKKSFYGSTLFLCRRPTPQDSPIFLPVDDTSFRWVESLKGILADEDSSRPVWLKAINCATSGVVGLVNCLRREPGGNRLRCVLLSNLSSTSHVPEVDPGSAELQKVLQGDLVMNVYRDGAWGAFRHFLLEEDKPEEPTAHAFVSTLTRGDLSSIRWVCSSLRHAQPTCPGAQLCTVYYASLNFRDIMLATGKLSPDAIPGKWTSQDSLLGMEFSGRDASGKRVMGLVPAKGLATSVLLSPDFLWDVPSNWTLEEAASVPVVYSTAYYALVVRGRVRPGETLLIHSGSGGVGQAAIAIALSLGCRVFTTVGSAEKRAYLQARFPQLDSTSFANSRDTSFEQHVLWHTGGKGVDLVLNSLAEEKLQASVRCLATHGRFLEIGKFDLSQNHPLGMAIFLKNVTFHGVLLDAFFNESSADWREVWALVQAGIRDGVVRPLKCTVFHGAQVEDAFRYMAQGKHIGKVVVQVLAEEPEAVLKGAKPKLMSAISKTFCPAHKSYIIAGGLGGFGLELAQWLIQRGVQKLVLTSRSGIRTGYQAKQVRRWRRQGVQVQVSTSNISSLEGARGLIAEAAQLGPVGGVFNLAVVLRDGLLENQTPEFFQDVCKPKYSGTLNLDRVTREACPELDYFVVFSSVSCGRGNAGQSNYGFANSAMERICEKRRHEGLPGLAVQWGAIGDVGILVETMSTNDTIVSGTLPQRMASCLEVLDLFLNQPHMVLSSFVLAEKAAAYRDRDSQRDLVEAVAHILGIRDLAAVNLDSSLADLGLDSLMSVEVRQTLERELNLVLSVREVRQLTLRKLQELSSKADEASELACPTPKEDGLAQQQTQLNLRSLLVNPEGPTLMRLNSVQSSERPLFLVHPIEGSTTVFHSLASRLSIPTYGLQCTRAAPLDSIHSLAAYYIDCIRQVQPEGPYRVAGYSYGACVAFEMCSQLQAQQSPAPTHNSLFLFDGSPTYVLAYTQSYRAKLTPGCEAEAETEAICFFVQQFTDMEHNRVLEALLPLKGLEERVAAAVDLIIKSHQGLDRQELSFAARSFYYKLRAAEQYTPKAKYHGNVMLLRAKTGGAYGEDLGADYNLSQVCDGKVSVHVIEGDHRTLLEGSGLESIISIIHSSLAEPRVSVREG
row,Compound,IC50
1,O=C(COc1ccc2c(-c3ccccc3)cc(=O)oc2c1)N[C@@H](Cc1c[nH]c2ccc(O)cc12)C(=O)O,6.9 µM (active)
2,O=C(Nc1nnc(SCc2ccccc2Cl)s1)c1cccc([N+](=O)[O-])c1,11 µM (active)

# Target: T1, Protein RecA (Mycobacterium tuberculosis, UniProt P9WHJ3)
# T1 sequence (P9WHJ3 whole entry): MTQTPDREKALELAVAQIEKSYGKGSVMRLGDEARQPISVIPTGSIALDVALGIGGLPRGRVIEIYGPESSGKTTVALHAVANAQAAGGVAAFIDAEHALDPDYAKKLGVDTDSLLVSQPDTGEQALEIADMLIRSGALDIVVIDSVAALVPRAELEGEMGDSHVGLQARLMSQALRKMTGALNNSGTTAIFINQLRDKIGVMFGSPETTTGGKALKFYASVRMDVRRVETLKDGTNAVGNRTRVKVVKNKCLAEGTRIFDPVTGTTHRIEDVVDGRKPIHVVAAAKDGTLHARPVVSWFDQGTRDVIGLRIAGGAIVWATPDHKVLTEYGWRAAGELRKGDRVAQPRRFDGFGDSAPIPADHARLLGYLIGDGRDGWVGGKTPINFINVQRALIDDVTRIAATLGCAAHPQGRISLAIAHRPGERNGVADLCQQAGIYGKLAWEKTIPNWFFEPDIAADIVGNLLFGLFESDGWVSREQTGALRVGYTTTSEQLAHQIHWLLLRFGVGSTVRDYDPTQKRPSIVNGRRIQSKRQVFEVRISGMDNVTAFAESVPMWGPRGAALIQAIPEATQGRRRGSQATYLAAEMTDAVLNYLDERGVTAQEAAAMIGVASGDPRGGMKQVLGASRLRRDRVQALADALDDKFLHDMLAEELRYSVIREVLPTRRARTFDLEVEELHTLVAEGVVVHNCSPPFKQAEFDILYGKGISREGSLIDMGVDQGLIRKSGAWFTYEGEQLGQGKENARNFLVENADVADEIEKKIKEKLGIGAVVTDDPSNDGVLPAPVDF
# Experiment: Fluorescence Cell-Free Homogeneous Dose Retest to Identify Inhibitors of RecA-Intein Splicing Activity. [Related pubchem assays (depositor defined):AID2097, AID2223, AID489010, AID492950]
# Format: functional
# Settings: not given
row,Compound,EC50
1,O=Cc1ccc(Sc2nnc(-c3ccccc3)o2)c([N+](=O)[O-])c1,5.46 µM (active)

# Test system: H9c2;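 also: confirmatory concentration-response retest of ultra-high-throughput screening hits for modulation of myocardial damage; cell death induced by hydrogen peroxide oxidative stress; compound pretreatment for 60 min then peroxide exposure for 2 h; potency is for protecting the cells against peroxide damage rather than for killing them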
# Experiment: cells
# Format: functional, cell-based
# Settings: Rattus norvegicus, H9c2, Myocardium
row,Compound,IC50
1,COc1ccc2nc(O)c(CN(c3ccccc3OC)S(=O)(=O)c3ccccc3)cc2c1,13.3 µM (active)
2,NC(=O)c1nsc(C(=O)N(c2ccccc2)C(C(=O)NCc2ccc(F)cc2)c2ccc(O)cc2)c1N (stereo not given),> 79 µM (inactive)
3,Fc1ccc(-n2cc(-c3ccccc3)c3c(N4CCOCC4)ncnc32)cc1,> 79 µM (inactive)

# Test system: not listed separately
# Experiment: fluconazole-exposed Candida albicans growth modulators – fluorescence, retest, confirmation (AID 2467)
# Format: functional, cell-based
# Settings: not given
row,Compound,EC50
1,O=C(NN=C(S)Nc1ccc(Cl)cc1)c1ccccc1OC(F)F,6.72 µM (active)
2,O=Nc1c(O)n(Cc2cccc(C(F)(F)F)c2)c2ccccc12,1.89 µM (active)
3,Cc1cccc(C2c3[nH]c4ccccc4c3CCN2C(=O)c2cc(-c3cccn3C)[nH]n2)n1 (stereo not given),3.22 µM (active)
4,COc1cccc(NC(=O)c2ccc3nc(C)sc3c2)c1,1.53 µM (active)
5,COc1ccc(-c2[nH]nc(C)c2-c2cnn(-c3ccccc3)c2)c(O)c1,3.77 µM (active)
6,CSCCC1NC2(C(=O)Nc3c(C)cc(Cl)cc32)[C@@H]2C(=O)N(C3CCCC3)C(=O)[C@H]12 (stereo not given in full),> 38 µM (not active)

# Test system: not listed separately
# Experiment: NIH-3T3 fibroblast cytotoxicity, dose response, cytotoxicity control, cell-based, fluorescence, Alamar Blue, secondary assay (AID 2327);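 also: NIH-3T3 mouse fibroblasts cultured with fluconazole at 8 µg/mL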
# Format: functional
# Settings: not given
row,Compound,EC50
1,O=C(NN=C(S)Nc1ccc(Cl)cc1)c1ccccc1OC(F)F,72.6 µM (active)
2,O=Nc1c(O)n(Cc2cccc(C(F)(F)F)c2)c2ccccc12,> 160 µM (inactive)
3,Cc1cccc(C2c3[nH]c4ccccc4c3CCN2C(=O)c2cc(-c3cccn3C)[nH]n2)n1 (stereo not given),> 160 µM (inconclusive)
4,COc1cccc(NC(=O)c2ccc3nc(C)sc3c2)c1,> 160 µM (inconclusive)
5,COc1ccc(-c2[nH]nc(C)c2-c2cnn(-c3ccccc3)c2)c(O)c1,> 160 µM (inactive)
6,CSCCC1NC2(C(=O)Nc3c(C)cc(Cl)cc32)[C@@H]2C(=O)N(C3CCCC3)C(=O)[C@H]12 (stereo not given in full),> 150 µM (inactive)

# Test system: not listed separately
# Experiment: viability of HCT116 lacking mutant beta-catenin – cell-based, human colon tumor, dose response (AID 1045);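 also: HCT116 colon tumor cells with beta catenin knocked out; cells exposed to compound for 60 hours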
# Format: functional
# Settings: not given
row,Compound,EC50
1,COc1ccc(/C=C2\CN(Cc3ccccc3)C/C(=C\c3ccc(OC)cc3)C2=O)cc1,5.52 µM (active)
2,Fc1ccc(-c2cc3nc(-c4ccccc4)cc(N4CCN(CCN5CCOCC5)CC4)n3n2)cc1,85 µM (active)
3,O=Cc1ccc(Sc2nnc(-c3ccccc3)o2)c([N+](=O)[O-])c1,18.1 µM (active)
4,CCOc1nc(NCCc2ccc(OC)c(OC)c2)nc(N2CCN(c3ccc(OC)cc3)CC2)n1,10.5 µM (active)
5,COc1cc(C(=O)O/N=C2/C=CC(=O)C(C)=C2C)cc(OC)c1OC,19 µM (active)

# Target: T2, Heat shock factor protein 1 (Mus musculus, UniProt P38532)
# T2 sequence (P38532 whole entry): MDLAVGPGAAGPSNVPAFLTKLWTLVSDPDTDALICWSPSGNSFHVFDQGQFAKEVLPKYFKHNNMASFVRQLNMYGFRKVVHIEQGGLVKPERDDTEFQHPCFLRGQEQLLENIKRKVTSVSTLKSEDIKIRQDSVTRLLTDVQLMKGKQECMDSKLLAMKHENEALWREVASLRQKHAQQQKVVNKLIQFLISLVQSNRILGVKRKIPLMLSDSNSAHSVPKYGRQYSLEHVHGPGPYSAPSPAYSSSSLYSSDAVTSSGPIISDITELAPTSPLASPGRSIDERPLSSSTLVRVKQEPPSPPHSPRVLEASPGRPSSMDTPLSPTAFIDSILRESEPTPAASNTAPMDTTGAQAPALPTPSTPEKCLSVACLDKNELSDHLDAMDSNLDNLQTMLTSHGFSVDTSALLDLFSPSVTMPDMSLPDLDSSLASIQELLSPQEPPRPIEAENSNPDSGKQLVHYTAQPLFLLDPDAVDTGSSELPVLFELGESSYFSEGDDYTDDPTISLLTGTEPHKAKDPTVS
# Experiment: decrease of HSF1-responsive luciferase luminescence – cell-based, NIH3T3, dose retest, confirmation (AID 2382);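 also: NIH3T3 fibroblasts with HSF1-driven luciferase reporter stressed by proteasome inhibitor MG132; luminescence from HSF1-driven luciferase expression after 8 hours of MG132 stress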
# Format: functional
# Settings: not given
row,Compound,EC50
1,Fc1ccc(-n2cc(-c3ccccc3)c3c(N4CCOCC4)ncnc32)cc1,2.3 µM (active)

# Test system: H4
# Experiment: Luminescence Cell-Based Dose Response HTS to Identify Activators of 5'UTR Stem-Loop Driven Prion Protein mRNA Translation in H4 Neuroglioblastoma Cells. [Related pubchem assays: 1829 (Project Summary), 1814 (Primary HTS)]
# Format: functional
# Settings: Homo sapiens
row,Compound,EC50
1,COc1ccc2nc(O)c(CN(c3ccccc3OC)S(=O)(=O)c3ccccc3)cc2c1,> 120 µM (not active)

# Test system: not listed separately
# Experiment: NIH3T3 cell viability loss – ATP luminescence, mouse fibroblasts, counter-screen, dose response (AID 2010);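 also: cells exposed to compound for about 90 hours before reading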
# Format: functional, cell-based
# Settings: not given
row,Compound,EC50
1,Fc1ccc(-c2cc3nc(-c4ccccc4)cc(N4CCN(CCN5CCOCC5)CC4)n3n2)cc1,7.58 µM (active)

# Target: T3, Replicative DNA helicase DnaB (Mycobacterium tuberculosis, UniProt P9WMR3)
# T3 sequence (P9WMR3 whole entry): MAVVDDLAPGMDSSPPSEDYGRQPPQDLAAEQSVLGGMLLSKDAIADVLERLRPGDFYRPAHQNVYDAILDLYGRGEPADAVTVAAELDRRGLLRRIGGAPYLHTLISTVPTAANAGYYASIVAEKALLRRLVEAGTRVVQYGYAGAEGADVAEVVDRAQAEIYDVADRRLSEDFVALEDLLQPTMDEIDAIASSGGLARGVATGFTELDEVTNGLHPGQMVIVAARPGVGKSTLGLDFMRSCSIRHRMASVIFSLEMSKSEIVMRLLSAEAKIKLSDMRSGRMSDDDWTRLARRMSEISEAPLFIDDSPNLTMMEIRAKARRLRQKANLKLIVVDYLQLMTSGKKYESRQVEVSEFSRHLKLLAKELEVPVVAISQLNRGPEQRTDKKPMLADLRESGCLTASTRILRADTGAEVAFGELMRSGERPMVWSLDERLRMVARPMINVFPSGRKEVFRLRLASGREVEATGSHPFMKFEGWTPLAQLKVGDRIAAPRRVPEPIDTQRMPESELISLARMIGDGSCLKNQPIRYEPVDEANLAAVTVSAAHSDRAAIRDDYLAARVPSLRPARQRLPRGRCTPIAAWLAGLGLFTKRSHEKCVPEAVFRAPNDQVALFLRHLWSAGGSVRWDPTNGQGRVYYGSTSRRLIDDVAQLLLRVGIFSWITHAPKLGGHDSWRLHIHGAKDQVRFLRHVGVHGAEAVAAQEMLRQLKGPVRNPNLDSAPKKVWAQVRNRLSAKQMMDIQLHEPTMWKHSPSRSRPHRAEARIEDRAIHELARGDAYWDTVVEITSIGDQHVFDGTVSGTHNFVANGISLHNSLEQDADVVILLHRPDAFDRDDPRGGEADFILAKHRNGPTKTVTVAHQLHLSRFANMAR
# Experiment: DnaB intein splicing inhibitors, dose response, biochemical, cell-free fluorescence (AID 449749)
# Format: functional
# Settings: not given
row,Compound,AC50
1,O=Cc1ccc(Sc2nnc(-c3ccccc3)o2)c([N+](=O)[O-])c1,9.51 µM (active)

# Test system: not listed separately
# Experiment: Luminescence Cell-Based Dose Response HTS to Identify Activators of Luciferase Translation or Activity in H4 […] Cells. [Related pubchem assays: 1829 (Project Summary), 1814 (Primary HTS)]
# Format: functional
# Settings: not given
row,Compound,EC50
1,COc1ccc2nc(O)c(CN(c3ccccc3OC)S(=O)(=O)c3ccccc3)cc2c1,14.3 µM (active)

# Test system: not listed separately
# Experiment: Luminescence Cell-Based Dose Confirmation HTS to Identify Activators of 5'UTR Stem-Loop Driven Alpha-Synuclein mRNA Translation in H4 Neuroglioblastoma Cells. [Related pubchem assays: 1829 (Project Summary), 1814 (Primary HTS)]
# Format: functional
# Settings: not given
row,Compound,EC50
1,COc1ccc2nc(O)c(CN(c3ccccc3OC)S(=O)(=O)c3ccccc3)cc2c1,> 120 µM (not active)

# Test system: not listed separately
# Experiment: Trypanosoma cruzi growth suppression in host cells – NIH3T3 host cells, beta-gal luminescence, confirmation (AID 2044);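 also: intracellular parasites grown in NIH/3T3 mouse fibroblasts as host cells; luminescent beta-galactosidase reporter signal from transgenic T. cruzi replicating inside host cells; inhibitors lower the luminescence signal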
# Format: functional, cell-based
# Settings: not given
row,Compound,EC50
1,Fc1ccc(-c2cc3nc(-c4ccccc4)cc(N4CCN(CCN5CCOCC5)CC4)n3n2)cc1,4.9 µM (active)
